Key:
[1] = test system: Caco-2 cells; test: Caco-2 cell permeability; type: in vitro ADME; conditions: compared to the controls and 9f and 11c
Method: Corning® Costar® Transwell plates (Sigma-Aldrich, St. Louis, MO, USA) were used for seeding Caco-2 cells at 3 × 10^5 cells/well bathed with DMEM supplemented with 10% FSB according to Faria and collaborator in 2018 (Faria et al., [2018]). This culture was maintained for up to 21 days in a humidified incubator at 37°C and 5% CO2. Thiadiazole analog, vinblastine (poor permeability control), and propranolol (high permeability control) stock solutions, all at a concentration of 100 mM, were prepared in Hanks' balanced salt solution (HBSS) containing 25 mM HEPES at pH 7.4 with 0.5% (v/v) DMSO. Transport buffer (0.3 ml) was added to each well to equilibrate the cells with the transport buffer. A 24-well enhanced recovery plate containing 1 ml of transport buffer (pH 7.4) was substituted for the feeder tray. The transport buffer in the apical wells was removed, and 0.3 ml of a solution containing thiadiazoles 9b, 9c, 9f, or 11c; vinblastine; or propranolol was added. Then, the cells were replaced for incubation for 60 min. Lucifer yellow concentrations in the donor and acceptor wells were measured in the last of this incubation. Lucifer yellow was measured using an M5 plate reader ([…]) at an excitation wavelength of 485 nm and an emission wavelength of 530 nm.

[2] = molecular target: T1, P2Y13R (Homo sapiens, UniProt Q9BPV8); test: ADPβS-induced [Ca2+]i shifts in HEP2G cells; type: cell-based; conditions: concentration not given
T1 construct: endogenous in cells; host or cells: HEP2G (HEPG2) cells
T1 sequence (Q9BPV8 1-354): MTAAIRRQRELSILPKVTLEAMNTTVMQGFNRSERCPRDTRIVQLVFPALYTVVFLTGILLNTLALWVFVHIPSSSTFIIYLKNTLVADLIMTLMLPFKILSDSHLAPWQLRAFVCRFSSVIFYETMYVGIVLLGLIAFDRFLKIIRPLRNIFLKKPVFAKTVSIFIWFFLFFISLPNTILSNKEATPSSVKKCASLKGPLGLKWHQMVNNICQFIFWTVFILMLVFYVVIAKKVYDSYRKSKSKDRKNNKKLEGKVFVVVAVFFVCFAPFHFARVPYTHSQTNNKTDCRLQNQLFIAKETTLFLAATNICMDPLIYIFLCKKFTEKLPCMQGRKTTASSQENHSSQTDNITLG
Method: (§1) Mouse peritoneal macrophages, PC12 cells, J774 cells, and HEPG2 cells were analyzed by fluorescence microscopy to measure the intracellular Ca^2+ concentrations ([Ca^2+]i). Cells were incubated with 2 μM Fura-2-AM (Molecular Probes) for 30 min, and the [Ca^2+]i mobilization was measured in the F340/F380 ratios with a FlexStation 3 multimode microplate reader (Molecular Devices). Cells were plated in translucent 96-well plates (BD Falcon) for 15 min and then washed and incubated in a saline solution with 150 NaCl, 5 KCl, 1 MgCl2, 1 CaCl2, and 10 HEPES (pH 7.4) for 30 min before measurements of [Ca^2+]i. The Ca^2+ influx was induced by stimulating cells with P2 receptor agonists. P2 receptor antagonists were added 10 min before P2 receptor agonist addition. […] Ionomycin was considered a positive control, and the other recordings were normalized in relation to the AUC.

[3] = molecular target: T2, P2X4R (Rattus norvegicus, UniProt P51577); test: ATP-induced [Ca2+]i shifts potentiated by ivermectin in NR8383 alveolar macrophage cell line; type: cell-based; conditions: 10 μM; NR8383 cells
T2 construct: endogenous in cells; host or cells: NR8383 rat alveolar macrophage cell line
T2 sequence (P51577 1-388): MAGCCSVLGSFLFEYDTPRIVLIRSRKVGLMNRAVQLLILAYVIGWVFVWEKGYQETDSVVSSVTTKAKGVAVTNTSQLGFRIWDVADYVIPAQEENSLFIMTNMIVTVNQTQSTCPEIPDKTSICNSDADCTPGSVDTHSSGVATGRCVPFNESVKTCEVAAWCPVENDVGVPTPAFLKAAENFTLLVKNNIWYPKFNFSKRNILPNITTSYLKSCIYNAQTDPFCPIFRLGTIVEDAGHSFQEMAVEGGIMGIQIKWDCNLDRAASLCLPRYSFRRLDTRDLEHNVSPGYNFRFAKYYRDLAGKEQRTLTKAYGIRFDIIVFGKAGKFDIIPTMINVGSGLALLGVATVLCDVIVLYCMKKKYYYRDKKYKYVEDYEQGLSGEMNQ

[4] = test system: carrageenan-induced paw edema; test: Carrageenan-induced paw edema in mice; type: in vivo, mouse; conditions: 9f 0.001–1 mg/kg intraperitoneally 1 h before carrageenan, edema measured after 60 min
Method: (§2) Our protocols using Swiss Webster mice 4–5 weeks old adhered to the Ethical Principles in Animal Experimentation adopted by the Brazilian College of Animal Experimentation and approved by the FIOCRUZ Research Ethics Committee (Faria et al., [2018]) (number LW-5814). Mouse paw edema was stimulated with carrageenan (300 μg/paw) saline suspension for 60 min or ATP (10 mg/paw) for 30 min. Treatment with diclofenac (100 μg/kg), oxidized ATP (100 μg/kg), and analog 9f (0.001–1 mg/kg) was intraperitoneally administered 60 min prior to the […] administration of carrageenan or ATP. A plethysmometer (UGO Basil, Italy) was used to measure the edema before inductor injection, and the relative paw edema increased after carrageenan or ATP action.

[5] = test system: P2Y11R; test: NAADP-induced [Ca2+]i shifts in mouse peritoneal macrophages; type: cell-based; conditions: concentration not given
Method: as §1

[6] = molecular target: T3, P2Y1R (Mus musculus, UniProt P49650); test: ADP-induced [Ca2+]i shifts in mouse peritoneal macrophages; type: cell-based; conditions: concentration not given
T3 construct: endogenous in cells; host or cells: mouse peritoneal macrophages
T3 sequence (P49650 whole entry): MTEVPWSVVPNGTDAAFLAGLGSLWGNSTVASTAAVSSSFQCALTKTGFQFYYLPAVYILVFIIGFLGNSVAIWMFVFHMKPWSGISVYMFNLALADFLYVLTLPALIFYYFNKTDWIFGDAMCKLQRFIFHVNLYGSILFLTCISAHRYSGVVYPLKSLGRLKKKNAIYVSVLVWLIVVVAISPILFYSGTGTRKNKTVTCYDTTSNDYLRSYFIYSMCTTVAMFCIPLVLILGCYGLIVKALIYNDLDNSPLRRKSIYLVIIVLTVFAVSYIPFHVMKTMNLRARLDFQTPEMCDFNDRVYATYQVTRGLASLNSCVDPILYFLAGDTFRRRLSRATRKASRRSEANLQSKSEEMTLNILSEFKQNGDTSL
Method: as §1

[7] = molecular target: T4, P2Y12R (Mus musculus, UniProt Q9CPV9); test: 2MeSADP-activated [Ca2+]i shifts in mouse peritoneal macrophages; type: cell-based; conditions: concentration not given
T4 construct: endogenous in cells; host or cells: mouse peritoneal macrophages
T4 sequence (Q9CPV9 whole entry): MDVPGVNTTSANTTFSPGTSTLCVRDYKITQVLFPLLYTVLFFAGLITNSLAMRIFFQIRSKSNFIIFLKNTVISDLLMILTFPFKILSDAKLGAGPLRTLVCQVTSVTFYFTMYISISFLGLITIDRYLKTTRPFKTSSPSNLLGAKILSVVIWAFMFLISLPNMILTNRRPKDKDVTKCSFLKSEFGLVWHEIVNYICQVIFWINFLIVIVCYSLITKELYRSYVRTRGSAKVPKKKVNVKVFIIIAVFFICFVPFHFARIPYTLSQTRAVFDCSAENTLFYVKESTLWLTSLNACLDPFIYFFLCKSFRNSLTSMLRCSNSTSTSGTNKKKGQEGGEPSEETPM

[8] = molecular target: T5, P2Y2R (Mus musculus, UniProt P35383); test: 2-S-UTP-activated [Ca2+]i shifts in mouse peritoneal macrophages; type: cell-based; conditions: concentration not given
T5 construct: endogenous in cells; host or cells: mouse peritoneal macrophages
T5 sequence (P35383 whole entry): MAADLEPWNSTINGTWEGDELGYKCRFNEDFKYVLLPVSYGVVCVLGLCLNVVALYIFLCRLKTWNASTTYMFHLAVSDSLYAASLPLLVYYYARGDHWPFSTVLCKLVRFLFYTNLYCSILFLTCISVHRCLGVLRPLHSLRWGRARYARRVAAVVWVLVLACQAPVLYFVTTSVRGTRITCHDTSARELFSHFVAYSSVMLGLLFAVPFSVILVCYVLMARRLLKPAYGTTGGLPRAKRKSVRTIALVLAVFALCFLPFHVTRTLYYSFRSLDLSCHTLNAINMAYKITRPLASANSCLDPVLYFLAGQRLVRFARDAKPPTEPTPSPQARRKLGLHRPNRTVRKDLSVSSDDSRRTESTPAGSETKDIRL
Method: as §1

[9] = test system: ATP-induced paw edema; test: ATP-induced paw edema in mice; type: in vivo, mouse; conditions: 9f 0.001–1 mg/kg intraperitoneally 1 h before ATP, edema measured after 30 min
Method: as §2

SMILES | Permeability in Caco-2 cells (in words) [1] | Effect on ADPβS-induced [Ca2+]i shifts [2] | Effect on ATP-induced [Ca2+]i shifts potentiated by 1 μM ivermectin [3] | Carrageenan-induced paw edema [4] | Effect on NAADP-induced [Ca2+]i shifts [5] | Effect on ADP-induced [Ca2+]i shifts [6] | Effect on 2MeSADP-activated [Ca2+]i shifts [7] | Effect on 2-S-UTP-activated [Ca2+]i shifts [8] | ATP-induced paw edema [9]
N#Cc1cnn(-c2nnc(-c3ccccc3Cl)s2)c1N [Compound 9b] | moderate permeability | – | – | – | – | – | – | – | –
N#Cc1cnn(-c2nnc(-c3ccc(F)cc3)s2)c1N [Compound 9c] | moderate permeability | – | – | – | – | – | – | – | –
CCOC(=O)c1cnn(-c2nnc(-c3ccccc3Cl)s2)c1N [Compound 9f] | – | did not inhibit | did not inhibit | dose-dependently decreased | did not inhibit | did not inhibit | not inhibited | did not have inhibitory effects | dose-dependently decreased
COc1ccc(CC(=O)NC(NC(=NC#N)Nc2cccc3ncccc23)C(C)(C)C)cc1OC (stereo not shown) [Compound A740003, N-(1-{[(cyanoimino)(5-quinolinylamino)methyl]amino}-2,2-dimethylpropyl)-2-(3,4-dimethoxyphenyl)acetamide] | – | did not inhibit | did not inhibit | – | did not inhibit | did not inhibit | not inhibited | did not have inhibitory effects | –

From paper PMC6511888, “Synthesis, Biological Evaluation, and Molecular Modeling Studies of New Thiadiazole Derivatives as Potent P2X7 Receptor Inhibitors” (Frontiers in Chemistry, 2019)
